Structures are written as SMILES.

This is an account of results in US20250179103A1, “6-OXODECAHYDROPYRROLO[1,2-A][1,5]DIAZOCINE AND 6-OXODECAHYDRO-4H-PYRROLO[2,1-D][1,5]THIAZOCINE DERIVATIVES AS STAT3 AND STAT6 MODULATORS FOR THE TREATMENT OF CANCER AND INFLAMMATORY CONDITIONS” (Recludix Pharma, Inc., priority 2022, published 2025).

One experiment deals with pY641-STAT6 in Peripheral Blood Mononuclear Cells (PBMC). Put plainly: MSD-pSTAT-PBMC Assay (pSTAT6, IL-4 stimulated). Format: cell-based, Human. To be noted: Homo sapiens, compound 3 hrs, then 1 ng/mL IL-4 for 10 min. From the text:
Cryopreserved Peripheral Blood Mononuclear Cells (PBMC) are from AllCells. Recombinant Human IL-4 and IL-6 are from Peprotech. Mouse monoclonal anti-STAT3 antibody, rabbit monoclonal anti-pY705-STAT3 antibody, rabbit monoclonal Anti-pY641-STAT6 antibody, and lysis buffer are from Cell Signaling Technology (CST). Mouse monoclonal anti-STAT6 antibody is from BioLegend. Assay plates, blocker, and anti-rabbit secondary antibody are from Meso Scale Discovery (MSD).
Cryopreserved PBMCs were thawed out and allowed to recover overnight in IMDM+10% heat-inactivated FBS prior to plating 50,000 (STAT3) or 25,000 (STAT6) cells per well in 96-well U-bottom tissue culture plates. Cells were treated with compound for 3 hrs, then stimulated with 10 ng/mL IL-6 (STAT3) or 1 ng/mL IL-4 (STAT6) for 10 min. Cells were then spun down and washed with ice-cold PBS prior to lysing the cell pellet with 1× lysis buffer (CST) with 1×HALT protease and phosphatase inhibitor cocktail (Thermo). Lysates were transferred to and incubated overnight at 4° C. with shaking in QuickPlex 96-well high bind assay plates (MSD) pre-coated overnight with 30 μL per well of 0.6 μg/mL mouse monoclonal anti-STAT3 antibody (STAT3) or 2 μg/mL mouse monoclonal anti-STAT6 antibody (STAT6) in 1×PBS, and pre-blocked for 1 hour with 3% Blocker-A (MSD). Captured protein in the assay plates were then washed and probed with 25 μL per well of 0.25 μg/ml rabbit monoclonal anti-pY705-STAT3 antibody (STAT3) or […] rabbit monoclonal Anti-pY641-STAT6 antibody (STAT6) in 1% Blocker-A for 1 hour at room temperature with shaking, then washed and probed with 25 ul per well of 1 ug/ml Sulfo-TAG Labeled Goat Anti-Rabbit Antibody (MSD) in 1% Blocker-A for 1 hour at room temperature with shaking. Assay plates were then washed and 150 μL of 1× Read Buffer-T (MSD) was added to each well prior to reading on an SQ120 MSD Plate Reader. Assay signal from each sample was subtracted by the signal from unstimulated control wells and normalized to DMSO control wells. IC50 values were calculated using Graph Pad Prism Dose-Response Nonlinear Regression with variable slope. For both pSTAT3 and pSTAT6 A=≤100 nM; B=>100-1000 nM; C=>1000-3000 nM; and D=>3 μM.
`CCCOC(=O)[C@H](C)NP(=O)(Oc1ccccc1)C(F)c1ccc2ccc(C(=O)N[C@H]3CN(C(=O)c4cc(Cl)c5nc(C)ccc5c4)CC[C@H]4CC[C@@H](C(=O)N5CCOCC5)N4C3=O)cc2c1` (stereo partly drawn) [Compound 407, propyl (((7-(((5S,8S,10aR)-3-(8-chloro-2-methylquinoline-6-carbonyl)-8-(morpholine-4-carbonyl)-6-oxodeca-hydropyrrolo [1,2-a][1,5]diazocin-5-yl)carbamoyl)naphthalen-2-yl)fluoromethyl) (phenoxy)phosphoryl)-L-alaninate] showed an IC50 of 1000 to 3000 nM.

Take `CCCOC(=O)[C@H](C)NP(=O)(Oc1ccccc1)C(F)c1ccc2ccc(C(=O)N[C@H]3CN(C(=O)c4cc5ncccn5n4)CC[C@H]4CC[C@@H](C(=O)N5CCOCC5)N4C3=O)cc2c1` (stereo partly drawn) [Compound 426, propyl ((fluoro(7-(((5S,8S,10aR)-8-(morpholine-4-carbonyl)-6-oxo-3-(pyrazolo[1,5-a]pyrimidine-2-carbonyl)decahydro-pyrrolo [1,2-a][1,5]diazocin-5-yl)carbamoyl)naphthalen-2-yl)methyl) (phenoxy)phosphoryl)-L-alaninate]: the IC50 is greater than 3000 nM.

`CCCOC(=O)[C@H](C)NP(=O)(Oc1ccccc1)C(F)c1ccc2ccc(C(=O)N[C@H]3CN(C(=O)c4noc5c4CCCC5)CC[C@H]4CC[C@@H](C(=O)N5CCOCC5)N4C3=O)cc2c1` (stereo partly drawn) [Compound 425, propyl ((fluoro(7-(((5S,8S,10aR)-8-(morpholine-4-carbonyl)-6-oxo-3-(4,5,6,7-tetrahydro-benzo[d]isoxazole-3-carbonyl)decahydropyrrolo [1,2-a][1,5]diazocin-5-yl)carbamoyl)naphthalen-2-yl)methyl) (phenoxy)phosphoryl)-L-alaninate]: the IC50 was in the range of 1000 to 3000 nM.

As to `CCCC(=O)SCCOP(=O)(OCCSC(=O)CCC)C(F)(F)c1ccc2ccc(C(=O)N[C@H]3CN(C(=O)c4noc5ccc(C)cc45)CC[C@H]4CC[C@@H](C(=O)N5C[C@H](c6ccn(C)c(=O)c6)CC56CC6)N4C3=O)cc2c1` [Compound 439, S,S′-((((difluoro(7 (((5S,8S,10aR)-8-((S)-6-(1-methyl-2-oxo-1,2-dihydropyridin-4-yl)-4-azaspiro[2.4]heptane-4-carbonyl)-3-(5-methylbenzo [d]isoxazole-3-carbonyl)-6-oxodeca-hydropyrrolo [1,2-a][1,5]diazocin-5-yl)carbamoyl)naphthalen-2-yl)methyl)phosphoryl)bis (oxy))bis (ethane-2,1-diyl)) dibutanethioate], the IC50 was no more than 100 nM.

Compound `CCCOC(=O)[C@H](C)NP(=O)(Oc1ccccc1)[C@@H](F)c1ccc2ccc(C(=O)N[C@H]3CN(C(=O)c4noc5ccc(C)cc45)CC[C@H]4CC[C@@H](C(=O)N5C(=O)N(c6cccnc6)C(=O)C56CC6)N4C3=O)cc2c1` (stereo partly drawn) [Compound 418, propyl (((R)-(7-(((5S,8S,10aR)-8-(5,7-dioxo-6-(pyridin-3-yl)-4,6-diazaspiro [2.4]heptane-4-carbonyl)-3-(5-methylbenzo [d]isoxazole-3-carbonyl)-6-oxodeca-hydropyrrolo [1,2a][1,5]diazocin-5-yl)carbamoyl)naphthalen-2-yl)fluoromethyl) (phenoxy)phosphoryl)-L-alaninate] displayed an IC50 of no more than 100 nM.

Consider `CCCOC(=O)[C@H](C)NP(=O)(Oc1ccccc1)C(F)c1ccc2ccc(C(=O)N[C@H]3CN(S(=O)(=O)CCC)CC[C@H]4CC[C@@H](C(=O)N5CCOCC5)N4C3=O)cc2c1` (stereo partly drawn) [Compound 427, propyl ((fluoro(7-(((5S,8S,10aR)-8-(morpholine-4-carbonyl)-6-oxo-3-(propylsulfonyl)decahydro-pyrrolo [1,2-a][1,5]diazocin-5-yl)carbamoyl)naphthalen-2-yl)methyl) (phenoxy)phosphoryl)-L-alaninate], for which the IC50 is greater than 3000 nM.

`CC(=O)N1CC[C@H]2CC[C@@H](C(=O)N3C[C@H](c4cc[nH]c(=O)c4)[C@@H](C#N)C3)N2C(=O)[C@@H](NC(=O)c2ccc3ccc(C(F)(F)P(=O)(OCCSC(=O)CC(C)C)OCOC(=O)OC(C)C)cc3c2)C1` (single isomer, unassigned) [Compound 302, S-(2-((((7-(((5S,8S, 10aR)-3-acetyl-8-((3R,4S or 3S,4R)-3-cyano-4-(2-oxo-1,2-dihydro-pyridin-4-yl)pyrrolidine-1-carbonyl)-6-oxodecahydro-pyrrolo[1,2-a][1,5]diazocin-5-yl)carbamoyl)naphthalen-2-yl)difluoro-methyl)(((iso-propoxy-carbonyl)oxy)methoxy)phos-phoryl)oxy)ethyl)3-methylbutane-thioate] registered an IC50 of 100 to 1000 nM.

As for `CCCOC(=O)[C@H](C)NP(=O)(Cc1ccc2ccc(C(=O)N[C@H]3CN(C(C)=O)CC[C@H]4CC[C@@H](C(=O)N5CC(c6ccn(C)c(=O)c6)CC56CC6)N4C3=O)cc2c1)Oc1ccccc1` (stereo partly drawn) [Compound 408, propyl (((7-(((5S,8S,10aR)-3-acetyl-8-(6-(1-methyl-2-oxo-1,2-dihydropyridin-4-yl)-4-azaspiro [2.4]heptane-4-carbonyl)-6-oxodeca-hydropyrrolo [1,2-a] [1,5]diazocin-5-yl)carbamoyl)naphthalen-2-yl)methyl) (phenoxy)phosphoryl)-L-alaninate], the IC50 was in the range of 1000 to 3000 nM.

`Cc1ccc2onc(C(=O)N3CC[C@H]4CC[C@@H](C(=O)N5C[C@H](c6cc[nH]c(=O)c6)CC56CC6)N4C(=O)[C@@H](NC(=O)c4ccc5ccc(C(F)(F)P(=O)(OCCSC(=O)C(C)(C)C)OCCSC(=O)C(C)(C)C)cc5c4)C3)c2c1` [Compound 434, S,S′-((((difluoro(7 (((5S,8S,10aR)-3-(5-methylbenzo [d]isoxazole-3-carbonyl)-6-oxo-8-((S)-6-(2-oxo-1,2-dihydropyridin-4-yl)-4-azaspiro[2.4]heptane-4-carbonyl)decahydro-pyrrolo [1,2-a][1,5]diazocin-5-yl)carbamoyl)naphthalen-2-yl)methyl)phosphoryl)bis (oxy))bis (ethane-2,1-diyl)) bis(2,2-dimethyl-propanethioate)]: the IC50 is no more than 100 nM.

The compound `Cc1ccc2onc(C(=O)N3CC[C@H]4CC[C@@H](C(=O)N5C[C@@H](C#N)[C@H](c6ccccc6)C5)N4C(=O)[C@@H](NC(=O)c4ccc5ccc(C(F)(F)P(=O)(OCCSC(=O)CC(C)C)OCCSC(=O)CC(C)C)cc5c4)C3)c2c1` (single isomer, unassigned) [Compound 433] had an IC50 of no more than 100 nM.

A further experiment has as its target T1, Recombinant STAT6 protein (STAT6(W123-T658)) (Homo sapiens, UniProt P42226).
T1 construct: Recombinant STAT6 protein (STAT6(W123-T658))
T1 sequence (P42226 123-658): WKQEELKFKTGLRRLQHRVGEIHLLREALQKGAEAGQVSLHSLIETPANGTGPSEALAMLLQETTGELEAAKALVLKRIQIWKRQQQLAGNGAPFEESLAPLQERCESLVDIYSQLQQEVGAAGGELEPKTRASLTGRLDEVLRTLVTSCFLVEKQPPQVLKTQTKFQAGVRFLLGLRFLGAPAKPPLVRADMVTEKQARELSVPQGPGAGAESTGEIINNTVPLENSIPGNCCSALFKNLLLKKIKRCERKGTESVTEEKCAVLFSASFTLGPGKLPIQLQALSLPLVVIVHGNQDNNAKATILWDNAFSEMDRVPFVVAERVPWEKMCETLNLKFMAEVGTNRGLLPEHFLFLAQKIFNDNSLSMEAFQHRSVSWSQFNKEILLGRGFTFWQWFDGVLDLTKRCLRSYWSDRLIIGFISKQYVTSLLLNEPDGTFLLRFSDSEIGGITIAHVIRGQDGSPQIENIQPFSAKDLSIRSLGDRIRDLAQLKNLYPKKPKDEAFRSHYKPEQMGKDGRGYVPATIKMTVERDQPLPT
Description: STAT6 Fluorescence Polarization (FP) Assay. Format: binding. As to conditions: STAT6(W123-T658) 250 nM, probe 5-FAM-ApYKPFQDLI-NH2 2 nM, 45-minute incubation. The essentials: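 Displacement of a fluorescent phosphotyrosine peptide (5-FAM-ApYKPFQDLI-NH2, 2 nM) from STAT6(W123-T658) (250 nM), 1% DMSO, pH 7.4 HEPES buffer. After 45 min at room temperature, polarization (mP) was plotted versus log compound concentration and fitted by nonlinear regression to give IC50.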
For `CC(=O)N1CC[C@H]2CC[C@@H](C(=O)N(C)c3ccc(C(C)(C)C)cc3)N2C(=O)[C@@H](NC(=O)c2ccc3ccc(C(F)(F)P(=O)(O)O)cc3c2)C1` [Compound 117, ((7-(((5S,8S,10aR)-3-acetyl-8-((4-(tert-butyl)phenyl)(methyl)carbamoyl)-6-oxodecahydropyrrolo[1,2-a][1,5]diazocin-5-yl)carbamoyl)naphthalen-2-yl)difluoromethyl)phosphonic acid], the IC50 was in the range of 300 to 3000 nM.

In another experiment the target is T2, Recombinant STAT3 protein (STAT3(G127-I722)) (Homo sapiens, UniProt P40763).
T2 construct: Recombinant STAT3 protein (STAT3(G127-I722))
T2 sequence (P40763 127-722): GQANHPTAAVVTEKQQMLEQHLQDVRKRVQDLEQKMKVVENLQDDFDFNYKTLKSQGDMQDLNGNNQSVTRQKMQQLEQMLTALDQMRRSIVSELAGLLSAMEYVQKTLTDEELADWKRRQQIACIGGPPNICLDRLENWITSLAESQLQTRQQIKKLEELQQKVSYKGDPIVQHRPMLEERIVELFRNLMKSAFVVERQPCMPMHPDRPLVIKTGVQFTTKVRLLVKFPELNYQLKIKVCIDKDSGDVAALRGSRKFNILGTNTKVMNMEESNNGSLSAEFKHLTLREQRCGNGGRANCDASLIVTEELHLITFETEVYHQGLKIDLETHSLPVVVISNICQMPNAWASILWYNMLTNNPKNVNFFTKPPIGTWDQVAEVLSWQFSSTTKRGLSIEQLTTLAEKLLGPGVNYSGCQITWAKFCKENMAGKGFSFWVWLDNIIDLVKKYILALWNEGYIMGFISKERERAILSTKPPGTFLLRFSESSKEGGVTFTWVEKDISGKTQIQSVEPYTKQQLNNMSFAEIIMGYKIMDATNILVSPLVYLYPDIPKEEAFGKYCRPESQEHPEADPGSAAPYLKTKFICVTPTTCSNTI
Description: STAT3 Fluorescence Polarization (FP) Assay. Format: binding. As to conditions: STAT3(G127-I722) 25 nM, probe 5-FAM-GpYLPQTV-NH2 2 nM, 45-minute incubation. The essentials:
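Fluorescence polarization after a 45-min room-temperature incubation measured compound displacement of a 2 nM fluorescein-labelled phosphotyrosine peptide (5-FAM-GpYLPQTV-NH2) from 25 nM recombinant STAT3(G127-I722). Buffer was 10 mM HEPES pH 7.4 with 1% DMSO final. IC50s were fitted by nonlinear regression of mP against log concentration.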
As for `CC(=O)N1CC[C@H]2CC[C@@H](C(=O)N(C)c3ccc(C(C)(C)C)cc3)N2C(=O)[C@@H](NC(=O)c2ccc3ccc(C(F)(F)P(=O)(O)O)cc3c2)C1` [Compound 117, ((7-(((5S,8S,10aR)-3-acetyl-8-((4-(tert-butyl)phenyl)(methyl)carbamoyl)-6-oxodecahydropyrrolo[1,2-a][1,5]diazocin-5-yl)carbamoyl)naphthalen-2-yl)difluoromethyl)phosphonic acid], the IC50 is greater than 10000 nM.
